Literature values, collected in patent US11791016B2, “Methods and systems for computer-generated predictive application of neuroimaging and gene expression mapping data” (NEUMORA THERAPEUTICS, INC., priority 2017, dated 2023).

How the values were obtained:
[1] = molecular target: 5-HT2A serotonin receptor (Homo sapiens, UniProt P28223); conditions: healthy human subjects
histamine H3 receptor = molecular target: T1, histamine H3 receptor (Homo sapiens, UniProt Q9Y5N1); conditions: patients with schizophrenia
T1 construct: host or cells: patients with schizophrenia, in vivo (Egan et al. 2013)
T1 sequence (Q9Y5N1 whole entry): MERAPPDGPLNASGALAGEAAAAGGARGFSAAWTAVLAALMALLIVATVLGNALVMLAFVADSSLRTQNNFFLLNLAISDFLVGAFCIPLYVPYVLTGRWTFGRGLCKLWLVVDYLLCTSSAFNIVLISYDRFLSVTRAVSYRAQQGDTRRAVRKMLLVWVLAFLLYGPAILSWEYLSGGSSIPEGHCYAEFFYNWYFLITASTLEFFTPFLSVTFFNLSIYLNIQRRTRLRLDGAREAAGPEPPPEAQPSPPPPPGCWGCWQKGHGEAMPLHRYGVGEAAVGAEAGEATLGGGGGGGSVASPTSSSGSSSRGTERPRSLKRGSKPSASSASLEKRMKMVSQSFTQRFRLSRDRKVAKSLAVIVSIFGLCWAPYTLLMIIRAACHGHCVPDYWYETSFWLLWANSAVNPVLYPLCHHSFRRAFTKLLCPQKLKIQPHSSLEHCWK

[2] = molecular target: muscarinic M3 (CHRM3) receptor (Homo sapiens, UniProt P20309)
Sequence of muscarinic M3 (CHRM3) receptor (P20309 whole entry, species assumed): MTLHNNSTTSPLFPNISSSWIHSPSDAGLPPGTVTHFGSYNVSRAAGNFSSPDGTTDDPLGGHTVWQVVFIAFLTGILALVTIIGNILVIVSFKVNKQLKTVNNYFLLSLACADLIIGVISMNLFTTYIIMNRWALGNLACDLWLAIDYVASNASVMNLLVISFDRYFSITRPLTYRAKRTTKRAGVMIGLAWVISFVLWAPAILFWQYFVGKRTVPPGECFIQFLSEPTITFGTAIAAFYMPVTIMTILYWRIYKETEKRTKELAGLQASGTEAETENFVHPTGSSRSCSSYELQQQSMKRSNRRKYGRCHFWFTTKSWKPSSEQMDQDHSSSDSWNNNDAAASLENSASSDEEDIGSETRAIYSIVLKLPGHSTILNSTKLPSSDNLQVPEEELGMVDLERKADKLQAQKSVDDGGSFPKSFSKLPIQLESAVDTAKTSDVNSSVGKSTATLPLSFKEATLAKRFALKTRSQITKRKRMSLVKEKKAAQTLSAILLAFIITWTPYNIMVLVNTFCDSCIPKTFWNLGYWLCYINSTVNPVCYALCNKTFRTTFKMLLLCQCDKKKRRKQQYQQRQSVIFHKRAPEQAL

5HT6 receptors = 5HT6 receptors (Homo sapiens, UniProt P50406)
Sequence of 5HT6 receptors (P50406 whole entry): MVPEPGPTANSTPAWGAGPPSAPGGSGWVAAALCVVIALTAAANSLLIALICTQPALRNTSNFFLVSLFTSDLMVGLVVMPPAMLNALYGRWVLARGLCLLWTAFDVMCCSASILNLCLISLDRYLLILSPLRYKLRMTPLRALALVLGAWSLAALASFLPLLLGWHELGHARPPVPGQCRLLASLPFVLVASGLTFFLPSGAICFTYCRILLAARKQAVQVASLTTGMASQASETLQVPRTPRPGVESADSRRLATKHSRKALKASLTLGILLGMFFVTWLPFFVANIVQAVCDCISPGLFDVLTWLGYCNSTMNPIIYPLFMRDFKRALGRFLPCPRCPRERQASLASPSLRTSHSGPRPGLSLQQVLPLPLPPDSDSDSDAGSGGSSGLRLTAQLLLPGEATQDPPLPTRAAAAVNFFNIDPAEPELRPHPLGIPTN

Sequence of 5-HT2A serotonin receptor (P28223 whole entry): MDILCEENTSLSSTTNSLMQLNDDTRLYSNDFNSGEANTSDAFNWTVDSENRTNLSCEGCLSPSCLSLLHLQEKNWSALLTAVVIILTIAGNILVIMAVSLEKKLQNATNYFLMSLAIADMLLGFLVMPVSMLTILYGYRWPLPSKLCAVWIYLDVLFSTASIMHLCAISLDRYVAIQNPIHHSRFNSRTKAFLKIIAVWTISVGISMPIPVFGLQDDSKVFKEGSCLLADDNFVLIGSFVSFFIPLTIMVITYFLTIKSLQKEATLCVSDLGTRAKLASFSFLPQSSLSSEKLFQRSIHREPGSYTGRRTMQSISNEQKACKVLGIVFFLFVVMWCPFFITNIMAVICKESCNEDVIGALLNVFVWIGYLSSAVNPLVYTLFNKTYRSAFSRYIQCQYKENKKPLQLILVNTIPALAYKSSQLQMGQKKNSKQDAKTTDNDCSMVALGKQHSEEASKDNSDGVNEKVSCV

In the case of `CCN(CC)C(=O)[C@@H]1C=C2c3cccc4[nH]cc(c34)C[C@H]2N(C)C1` [LSD, lysergic acid diethylamide], the “change in mean functional connectivity (Global Brain Connectivity, GBC)” value ([1]; acute administration, fMRI-derived cortical map) is listed as “large increase in occipital visual cortex”.
In the case of `Cc1nc2cccc(C(F)(F)F)c2c(=O)n1-c1ccc(OCCCN2CCCC2)cc1` [MK-0249], the “improvement of cognitive deficits” value (histamine H3 receptor) is listed as “failed to improve cognitive deficits”.
For `O=C1Nc2ccc(Cl)cc2[C@@](C#CC2CC2)(C(F)(F)F)O1` [efavirenz], the “mode of action at muscarinic M3 (CHRM3) receptor” value [2] is listed as “antagonist activity” and the “mode of action at 5HT6 receptors” value (5HT6 receptors) is listed as “inverse agonist activity”.
For `O=C(c1ccc(F)cc1)C1CCN(CCn2c(=O)[nH]c3ccccc3c2=O)CC1` [ketanserin], the “effect on LSD-induced neural change (GBC)” value ([1]; pre-administration before LSD) is listed as “blocked” and the “effect on behavioral effects of LSD” value ([1]; pre-administration before LSD) is listed as “blocked”.
